Laboratory results published in PubChem BioAssay AID489002 (NMMLSC, 2010).
Calls of active or inactive are those of the source.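 How the source made its calls: active means combined score above 52 from an acceptable curve fit, favoring EC50 below 10 µM and curve height over 20%; inactive means the rest.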

biological target: ATP-dependent translocase ABCB1 (Homo sapiens) (UniProt P08183); experiment: ABCB1 efflux inhibition concentration-response, dose response, Jurkat-DNR cells, JC-1, flow cytometry, follow-up (AID 489002); conditions: JC-1 efflux
Sequence (P08183 whole entry, looked up): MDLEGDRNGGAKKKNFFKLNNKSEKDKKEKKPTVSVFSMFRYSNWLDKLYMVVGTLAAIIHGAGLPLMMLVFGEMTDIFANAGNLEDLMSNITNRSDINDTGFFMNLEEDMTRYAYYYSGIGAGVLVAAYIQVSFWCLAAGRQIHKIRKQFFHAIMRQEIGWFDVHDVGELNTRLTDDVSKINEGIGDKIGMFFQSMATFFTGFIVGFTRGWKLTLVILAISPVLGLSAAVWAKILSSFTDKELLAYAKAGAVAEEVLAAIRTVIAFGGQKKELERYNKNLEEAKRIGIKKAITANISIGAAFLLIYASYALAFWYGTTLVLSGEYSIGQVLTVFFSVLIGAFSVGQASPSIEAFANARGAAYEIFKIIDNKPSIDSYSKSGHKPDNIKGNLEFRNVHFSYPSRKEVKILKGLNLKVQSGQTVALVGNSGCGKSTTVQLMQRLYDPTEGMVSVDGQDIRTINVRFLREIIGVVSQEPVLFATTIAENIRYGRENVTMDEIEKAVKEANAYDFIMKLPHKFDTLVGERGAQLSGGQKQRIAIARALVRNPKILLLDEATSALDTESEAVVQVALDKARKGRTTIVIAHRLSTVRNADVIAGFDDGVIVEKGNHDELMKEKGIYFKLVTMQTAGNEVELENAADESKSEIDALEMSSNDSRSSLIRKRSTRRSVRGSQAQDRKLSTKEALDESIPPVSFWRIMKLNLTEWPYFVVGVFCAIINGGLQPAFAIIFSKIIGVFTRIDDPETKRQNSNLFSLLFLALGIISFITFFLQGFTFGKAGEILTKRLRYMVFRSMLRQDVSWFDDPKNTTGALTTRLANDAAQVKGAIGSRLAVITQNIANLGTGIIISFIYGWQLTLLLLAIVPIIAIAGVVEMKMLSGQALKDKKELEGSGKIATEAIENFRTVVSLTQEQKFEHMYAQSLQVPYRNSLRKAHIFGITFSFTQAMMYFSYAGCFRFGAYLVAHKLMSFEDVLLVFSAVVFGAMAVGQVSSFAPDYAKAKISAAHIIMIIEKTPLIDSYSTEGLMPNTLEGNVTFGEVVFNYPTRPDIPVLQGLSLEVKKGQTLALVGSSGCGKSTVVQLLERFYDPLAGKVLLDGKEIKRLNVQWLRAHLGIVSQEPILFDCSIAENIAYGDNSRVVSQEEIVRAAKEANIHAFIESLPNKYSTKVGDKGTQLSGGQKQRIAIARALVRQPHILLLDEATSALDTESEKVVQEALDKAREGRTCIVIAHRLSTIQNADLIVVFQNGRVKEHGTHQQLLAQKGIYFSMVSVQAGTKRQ

| Compound | EC50 |
| --- | --- |
| O=C(c1ccsc1)N1CCN(c2cc(-c3ccco3)nc3cc(-c4ccccc4)nn23)CC1 | 5.69 µM |
| O=C(c1ccoc1)N1CCCN(c2cc(-c3ccco3)nc3cc(-c4ccccc4)nn23)C1 | inactive |
| O=C(c1ccoc1)N1CCN(c2cc(-c3ccco3)nc3cc(-c4ccccc4)nn23)CC1 | 4.6 µM |
| O=C(OCc1ccccc1)N1CCN(c2cc(-c3ccco3)nc3cc(-c4ccccc4)nn23)CC1 | 3.03 µM |
| O=C(c1coc2ccccc12)N1CCN(c2cc(-c3ccco3)nc3cc(-c4ccccc4)nn23)CC1 | inactive |
| CNCCCN(C)c1cc(-c2ccco2)nc2cc(-c3ccccc3)nn12 | inactive |
| Cc1occc1C(=O)N1CCN(c2cc(-c3ccco3)nc3cc(-c4ccccc4)nn23)CC1 | 11.8 µM |
| CC(C)(C)c1cc(N2CCN(C(=O)c3ccoc3)CC2)n2nc(-c3ccccc3)cc2n1 | inactive |
| O=C(c1ccoc1)N1CCN(c2cc(-c3cccc(F)c3)nc3cc(-c4cccc(Cl)c4)nn23)CC1 | 6.45 µM |
| O=C(c1ccoc1)N1CCN(c2cc(-c3ccccc3)nc3cc(-c4ccncc4)nn23)CC1 | 9.92 µM |
| c1ccc(-c2cc3nc(-c4ccco4)cc(N4CCNCC4)n3n2)cc1 | inactive |
| O=C(c1ccoc1)N1CCN(c2cc(-c3ccco3)nc3cc(-c4ccco4)nn23)CC1 | 2.03 µM |
| O=C(C1CCCO1)N1CCN(c2c3c(nc4cc(-c5cccc(F)c5)nn24)CCCC3)CC1 (stereo not given) | inactive |
| CC(=O)N1CCN(c2cc(-c3ccco3)nc3cc(-c4ccccc4)nn23)CC1 | 5.44 µM |
| O=C(c1ccoc1)N1CCN(c2cc(-c3ccco3)nc3cc(-c4cccs4)nn23)CC1 | 9.8 µM |
| Cc1cc(C(=O)N2CCN(c3cc(-c4ccco4)nc4cc(-c5ccccc5)nn34)CC2)c(C)o1 | 8.68 µM |
| O=C(c1ccoc1)N1CCN(c2cc(-c3ccco3)nc3cc(-c4cccc(-c5ccco5)c4)nn23)CC1 | 5.15 µM |
| CC1CN(C(=O)OC(C)(C)C)CCN1c1cc(-c2ccco2)nc2cc(-c3ccccc3)nn12 (stereo not given) | inactive |

| Compound | EC50 |
| --- | --- |
| COc1ccccc1-c1cc2nc(-c3ccco3)cc(N3CCN(C(=O)c4ccoc4)CC3)n2n1 | 10.3 µM |
| Cc1cc(N2CCN(C(=O)C3CCCO3)CC2)n2nc(-c3cccc(F)c3)cc2n1 (stereo not given) | inactive |
| c1ccc(CN2CCN(c3cc(-c4ccco4)nc4cc(-c5ccccc5)nn34)CC2)cc1 | 3.84 µM |
| Cc1ccc(-c2cc(N3CCN(C(=O)c4ccoc4)CC3)n3nc(-c4ccccc4)cc3n2)o1 | inactive |
| O=C(c1ccoc1)N1CCN(c2cc(-c3ccco3)nc3cc(-c4ccc(Cl)cc4)nn23)CC1 | inactive |
| O=C(c1ccco1)N1CCN(c2cc(-c3ccco3)nc3cc(-c4ccccc4)nn23)CC1 | 8.53 µM |
| COc1ccccc1-c1cc(N2CCN(C(=O)c3ccoc3)CC2)n2nc(-c3ccccc3)cc2n1 | 15.3 µM |
| O=C(c1ccoc1)N1CCN(c2cc(-c3ccoc3)nc3cc(-c4ccccc4)nn23)CC1 | inactive |
| CC(C)(C)OC(=O)N1CCN(c2cc(-c3ccco3)nc3cc(-c4ccccc4)nn23)CC1 | inactive |
| Cc1ccc(-c2cc3nc(-c4ccco4)cc(N4CCN(C(=O)c5ccoc5)CC4)n3n2)cc1 | inactive |
| O=C(c1ccoc1)N1CCN(c2cc(-c3cccs3)nc3cc(-c4ccccc4)nn23)CC1 | 8.33 µM |
| CN(CCCN(C)c1cc(-c2ccco2)nc2cc(-c3ccccc3)nn12)C(=O)c1ccoc1 | inactive |
| CC(=O)N1CCN(c2cc(-c3ccco3)nc3cc(-c4cccc(Cl)c4)nn23)CC1 | 3.97 µM |
| O=C1CN(c2cc(-c3ccco3)nc3cc(-c4ccccc4)nn23)CCN1c1ccccc1 | 6.61 µM |
| O=C(c1ccoc1)N1CCN(c2cc(-c3ccccc3F)nc3cc(-c4ccccc4)nn23)CC1 | 10.5 µM |
| O=C(c1ccco1)N1CCN(c2c3c(nc4cc(-c5ccc(F)cc5)nn24)CCC3)CC1 | 1.85 µM |
| COc1ccc(-c2[nH]nc3nc(N4CCN(C(=O)c5ccoc5)CC4)cc(C(F)(F)F)c23)cc1 | inactive |
| O=C(c1ccoc1)N1CCN(c2cc(-c3cccc(F)c3)nc3cc(-c4ccccc4)nn23)CC1 | inactive |

Now from value to compound:

| EC50 | Compound |
| --- | --- |
| 1.84 µM | COc1cc(OC)cc(-c2cc3nc(C)c(C)c(N4CCN(C(=O)c5ccoc5)CC4)n3n2)c1 |
| 7.07 µM | COc1cccc(-c2cc3nc(-c4ccccc4)cc(N4CCN(C(=O)c5ccoc5)CC4)n3n2)c1 |
| 1.93 µM | Cc1nc2cc(-c3ccc4c(c3)OCO4)nn2c(N2CCN(C(=O)c3ccoc3)CC2)c1C |
| 2.19 µM | Cc1nc2cc(-c3ccccc3)nn2c(N2CCN(C(=O)c3ccoc3)CC2)c1C |
| 4.08 µM | COc1ccc(-c2cc3nc(C)c(C)c(N4CCN(C(=O)c5ccoc5)CC4)n3n2)cc1 |
| 12.8 µM | COc1cccc(-c2cc3nc(C)c(C)c(N4CCN(C(=O)c5ccoc5)CC4)n3n2)c1 |
| 11.8 µM | COc1cccc(-c2cc3nc(C)c(C)c(N4CCN(C(=O)c5ccco5)CC4)n3n2)c1 |
| inactive | COc1cccc(-c2cc3nc(C)cc(N4CCN(C(=O)c5ccoc5)CC4)n3n2)c1 |
| 4.86 µM | COc1ccc(-c2cc3nc(-c4ccco4)cc(N4CCN(C(=O)c5ccoc5)CC4)n3n2)cc1 |
| inactive | O=C(c1ccoc1)N1CCN(c2cc(-c3ccco3)nc3cc(-c4cccc(Cl)c4)nn23)CC1 |
| 6.48 µM | Cc1c(-c2ccco2)nc2cc(-c3ccccc3)nn2c1N1CCN(C(=O)c2ccoc2)CC1 |
| 2.97 µM | COC(=O)c1cccc(-c2cc(N3CCN(C(=O)c4ccoc4)CC3)n3nc(-c4cccc(OC)c4)cc3n2)c1 |
| inactive | Cc1nc2cc(-c3cccc(Cl)c3)nn2c(N2CCN(C(=O)c3ccoc3)CC2)c1C |
| 4.77 µM | COc1cccc(-c2cc3nc(-c4ccccc4)c(C)c(N4CCN(C(=O)c5ccoc5)CC4)n3n2)c1 |
| 10.2 µM | COc1cccc(-c2cc3nc(C)c(C(C)C)c(N4CCN(C(=O)c5ccoc5)CC4)n3n2)c1 |
| 4.78 µM | COc1ccc(-c2cc3nc(C)c(C)c(N4CCN(C(=O)c5ccco5)CC4)n3n2)cc1 |
| inactive | Cc1cccc(-c2cc3nc(-c4ccco4)cc(N4CCN(C(=O)c5ccoc5)CC4)n3n2)c1 |
| 2.34 µM | COc1cccc(-c2cc3nc(-c4cccc(C#N)c4)cc(N4CCN(C(=O)c5ccoc5)CC4)n3n2)c1 |
| 3.54 µM | COc1cccc(-c2cc(N3CCN(C(=O)c4ccoc4)CC3)n3nc(-c4cccc(OC)c4)cc3n2)c1 |
| inactive | Cc1nc2cc(-c3ccncc3)nn2c(N2CCN(C(=O)c3ccoc3)CC2)c1C |
| inactive | Cc1nc2cc(-c3ccc(Br)cc3)nn2c(N2CCN(C(=O)c3ccoc3)CC2)c1C |
| inactive | COc1ccc(-c2cc(N3CCN(C(=O)c4ccoc4)CC3)n3nc(-c4ccccc4)cc3n2)cc1 |
| 2.05 µM | COc1ccc(-c2cc3nc(-c4ccccc4)cc(N4CCN(C(=O)c5ccoc5)CC4)n3n2)cc1 |

same assay, conditions: JC-1 efflux, at 50 µM (top of the series)

| Compound | inhibition |
| --- | --- |
| Cc1nn2c(N3CCN(C(=O)c4ccco4)CC3)cc(C(C)(C)C)nc2c1-c1ccc(Cl)cc1 | inactive |
| COc1ccccc1-c1c(C)nn2c(N3CCN(C(=O)c4ccco4)CC3)cc(C)nc12 | inactive |
| CC(=O)N1CCN(c2c(C)c(C)nc3cc(-c4ccc(F)cc4)nn23)CC1 | inactive |
| O=C(c1ccco1)N1CCN(c2cc(-c3ccccc3)nc3ncnn23)CC1 | inactive |

More lines, now with the values ahead:

| inhibition | Compound |
| --- | --- |
| inactive | COc1cccc(-c2cc3nc(C)c(C)c(N4CCN(Cc5ccco5)CC4)n3n2)c1 |
| inactive | Cc1nc2cc(-c3cccc(F)c3)nn2c(N2CCN(C(=O)c3ccco3)CC2)c1C |
